Results taken from PubChem BioAssay (NCI).
Where “and” joins values, the source holds several entries; their conditions need not be identical. Equal values may be shown once.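 Cultured in 96-well plates, cells were exposed to test compound for 48 hours across five concentrations. GI50 marks 50% less growth. TGI: concentration producing complete growth inhibition.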

What was measured:
Experiment in all cases: NCI-60 cell line screen, 48 h
NCI-H522 lung = tested on: NCI-H522 lung
COLO 205 colon = tested on: COLO 205 colon
A498 renal = tested on: A498 renal
SF-268 CNS = tested on: SF-268 CNS
HL-60(TB) leukemia = tested on: HL-60(TB) leukemia
HOP-92 NSCLC = tested on: HOP-92 NSCLC
OVCAR-8 ovarian = tested on: OVCAR-8 ovarian
RPMI-8226 leukemia = tested on: RPMI-8226 leukemia
NCI/ADR-RES ovarian = tested on: NCI/ADR-RES ovarian
PC-3 prostate = tested on: PC-3 prostate

Structure (SMILES)	TGI (NCI-H522 lung)	TGI (COLO 205 colon)	TGI (A498 renal)	TGI (SF-268 CNS)	TGI (HL-60(TB) leukemia)	TGI (HOP-92 NSCLC)	TGI (OVCAR-8 ovarian)	TGI (RPMI-8226 leukemia)	GI50 (NCI-H522 lung)	GI50 (COLO 205 colon)	GI50 (RPMI-8226 leukemia)	GI50 (NCI/ADR-RES ovarian)	TGI (NCI/ADR-RES ovarian)	GI50 (SF-268 CNS)	GI50 (HOP-92 NSCLC)	GI50 (OVCAR-8 ovarian)	GI50 (PC-3 prostate)	TGI (PC-3 prostate)	GI50 (HL-60(TB) leukemia)	GI50 (A498 renal)
CN1CC(C(=O)C2C(=O)c3ccccc3C2=O)C(=O)C(=O)C(C(=O)C2C(=O)c3ccccc3C2=O)C1 (stereo not given)	> 100 µM	> 100 µM	> 100 µM	> 100 µM	> 100 µM	> 100 µM	> 100 µM													
CC1=CCC23C(C1)OC(Br)(C=CC2(C)O)C3(C)C (stereo not given)		> 100 µM	> 100 µM	> 100 µM	> 100 µM	> 100 µM	> 100 µM													
CCOC(=O)C1SC(=Nc2ccc(Cl)c(Cl)c2)N=C1C (stereo not given)	> 100 µM	76.3 µM	84.3 µM	> 100 µM	59.7 µM		> 100 µM	56.9 µM												
CCOC(=O)/C=C/C(C(=O)/C=C/c1ccc(O)c(OC)c1)=C(O)\C=C\c1ccc(O)c(OC)c1	36.4 µM	12.8 µM		95.1 µM		30.1 µM	5.91 µM	7.23 µM	4.51 µM	3.14 µM	2.6 µM	2.13 µM	6.94 µM	11.1 µM	10.5 µM	2.21 µM	12.8 µM	> 100 µM		
Fc1ccc(C2SCc3nc4ccccc4n32)cc1 (stereo not given)	70.9 µM	> 100 µM		> 100 µM	71.8 µM	62 µM	> 100 µM	> 100 µM												
O=C(OCC1CO1)c1cccs1 (stereo not given)	36.9 µM	> 100 µM		> 100 µM	> 100 µM	> 100 µM	> 100 µM	> 100 µM												
CC(=O)OCC1OC(OC2CC3C(C)(C)C(O)CC[C@]3(C)C3CCC45CC4(CC[C@H]5C(C)CC(O)C4OC4(C)C)[C@]23C)C(O)C(O)C1O (stereo not given in full)	11.8 µM and 19 µM	13.8 µM and 11.9 µM	51.8 µM	13.4 µM and 28.4 µM	3.67 µM and 4.18 µM	14.6 µM	14.4 µM and 23.8 µM	2.41 µM and 7.16 µM	5.75 µM	3.4 µM	2.49 µM			11 µM		8.97 µM			1.73 µM	
C=C1C(=O)O[C@H]2[C@H]1CC/C(COC(=O)NCCc1c[nH]c3ccc(OC)cc13)=C\CC[C@@]1(C)O[C@@H]21	2.75 µM	2.78 µM	22.7 µM	13.1 µM		2.87 µM	5.23 µM	4.74 µM	1.18 µM	1.3 µM	1.44 µM	7.57 µM	29.2 µM	3 µM	1.19 µM	1.97 µM	1.99 µM	4.6 µM		10.5 µM
O=C(C(=O)N1CC2C=CC1CC2)c1c[nH]c2ccccc12 (stereo not given)	> 100 µM	> 100 µM	> 100 µM	> 100 µM	> 100 µM	> 100 µM	> 100 µM	> 100 µM												
Nc1c(C(=O)Nc2ccccc2)[n+]([O-])c2ccccc2[n+]1[O-]	4.4 µM	29.3 µM	31 µM	> 100 µM	90.8 µM	32.1 µM	> 100 µM	> 100 µM												
COc1ccc(/C=C\c2cc(OC)c(OC)c(OC)c2)cc1OC(=O)CCC(=O)O		38.5 µM		45.1 µM	< 0.0001 µM		69.6 µM	> 100 µM		1.68 µM								> 100 µM		< 0.0001 µM
COc1cc2c(cc1O)CC13CCC(=O)N1CCc1cc(OC)c(O)c-2c13 (stereo not given)		> 68.1 µM	> 68.1 µM	> 68.1 µM	> 68.1 µM	> 68.1 µM	> 68.1 µM	> 68.1 µM												
Cc1cc(=O)oc2cc(OCc3c(F)cccc3Cl)ccc12	> 100 µM		> 100 µM	> 100 µM	> 100 µM	33.2 µM	> 100 µM											> 100 µM		
COc1ccccc1NC(=O)C1=C(C)NC(C)=C(C(=O)Nc2ccccc2OC)C1c1ccc(C)cc1	> 100 µM	44 µM	82.7 µM	> 100 µM		> 100 µM	> 100 µM	> 100 µM												
Cc1ccc(-c2cc(C3=CC(=O)C=CC3=O)n(-c3ccc(S(N)(=O)=O)cc3)n2)cc1	> 100 µM	> 100 µM		> 100 µM	> 100 µM	> 100 µM	> 100 µM	70.2 µM	59.9 µM	53.9 µM	6.17 µM			55.3 µM	35.6 µM	88.7 µM	36.5 µM	> 100 µM	37.3 µM	
CCN(CCCl)CCCNc1c2ccccc2nc2ccc(OC)cc12		1.12 µM	356 µM				1.63 µM		103 µM					254 µM	180 µM				175 µM	
O=Nc1ccc2ccccc2c1O	4.17 µM	16.6 µM	28.2 µM	13.3 µM		27.3 µM	6.63 µM	31.1 µM	1.78 µM	4.79 µM	5.69 µM	2.62 µM	8.22 µM	3.97 µM	13.4 µM	2.67 µM	2.61 µM	11.9 µM		14.3 µM
CC(=O)CCCCO	> 100 µM	> 100 µM	> 100 µM	> 100 µM	> 100 µM	> 100 µM	> 100 µM	> 100 µM												
Cc1ccc2c(c1)NC(=O)CC(c1ccccc1)=N2	> 100 µM		> 100 µM	> 100 µM		> 100 µM	> 100 µM	76.7 µM					> 100 µM					> 100 µM		
COc1ccccc1C#Cc1ccccc1C#CCCCCCC#Cc1ccccc1C#Cc1ccccc1OC	> 100 µM	> 100 µM	> 100 µM	> 100 µM			> 100 µM	> 100 µM	40.3 µM	80.1 µM	29 µM	78.6 µM	> 100 µM	96.5 µM		> 100 µM	> 100 µM	> 100 µM		> 100 µM
